From patent US9765026B2, “Forms of apremilast and the process of making the same” (ScinoPharm Taiwan, Ltd., priority 2015, dated 2017) come the findings set out here.

A short description of data set [1]: Dynamic Vapor Sorption (DVS) analysis of moisture uptake and release. To be noted: for hygroscopicity (conclusion from DVS): cycling between 0% and 90% RH. In kind it is physicochemical. The method, then: Dynamic Vapor Sorption (DVS)
The sample was placed into the DVS sample pan and dried under a stream of dry nitrogen at 25° C. (0% RH). The moisture was gradually introduced into the system with a 10% RH increment up to 90% RH and the humidity was then decreased in a similar trend for desorption phase. The sorption and desorption data were collected with equilibration set to dm/dt 0.004%/min for 5 min/step. The minimum and maximum time for each step were set to 10 and 360 min. Two sorption/desorption cycles were performed.

Data set [2] is described as follows: Stability at 40° C./75% RH. In kind it is physicochemical. The following applies: 40° C./75% RH for 4 weeks. The procedure: In comparison with the form F disclosed in U.S. Pat. No. 8,093,293, Form 3 and Form 4 in the present disclosure needs less process time to be prepared and is stable even at 40° C./75% RH for 4 weeks.

Turning to `CCOc1cc([C@@H](CS(C)(=O)=O)N2C(=O)c3cccc(NC(C)=O)c3C2=O)ccc1OC` [amorphous apremilast, apremilast], the “hygroscopicity (conclusion from DVS)” value in data set [1] was “hygroscopic”. Besides, in data set [1] (cycling between 0% and 90% RH (FIG. 15)), the maximum moisture uptake result is given as “about 2.5 % of the total mass of the sample”.

The compound `CCOc1cc([C@@H](CS(C)(=O)=O)N2C(=O)c3cccc(NC(C)=O)c3C2=O)ccc1OC` [Form II, apremilast] yielded a water content in data set [1] (RH 90% (FIG. 5B)) of 4.5%. Moreover, the “hygroscopicity (conclusion from DVS)” value in data set [1] is “hygroscopic”.

For the compound `CCOc1cc([C@@H](CS(C)(=O)=O)N2C(=O)c3cccc(NC(C)=O)c3C2=O)ccc1OC` [Form 3, apremilast], the stability on storage result in data set [2] was “stable”.

Consider `CCOc1cc([C@@H](CS(C)(=O)=O)N2C(=O)c3cccc(NC(C)=O)c3C2=O)ccc1OC` [Form 4, apremilast], for which, in data set [1] (at 10% RH (FIG. 12)), the weight gained result is listed as “about 3.3%”. In addition, the “hygroscopicity (conclusion from DVS)” value in data set [1] is “non-hygroscopic”. The “change in sample weight” value in data set [1] (humidity increased from 10% to 90% RH (FIG. 12)) is listed as “no significant change”. In addition, in data set [2], the stability on storage entry is on record as “stable”.
